Like-named read-outs stand apart in the source and are kept apart here.
Tests used:
JAK3 = biological target: T1, JAK3 (Homo sapiens, UniProt P52333); experiment: Co-crystal structure with human JAK3; assay type: binding
T1 sequence (P52333 1-1124): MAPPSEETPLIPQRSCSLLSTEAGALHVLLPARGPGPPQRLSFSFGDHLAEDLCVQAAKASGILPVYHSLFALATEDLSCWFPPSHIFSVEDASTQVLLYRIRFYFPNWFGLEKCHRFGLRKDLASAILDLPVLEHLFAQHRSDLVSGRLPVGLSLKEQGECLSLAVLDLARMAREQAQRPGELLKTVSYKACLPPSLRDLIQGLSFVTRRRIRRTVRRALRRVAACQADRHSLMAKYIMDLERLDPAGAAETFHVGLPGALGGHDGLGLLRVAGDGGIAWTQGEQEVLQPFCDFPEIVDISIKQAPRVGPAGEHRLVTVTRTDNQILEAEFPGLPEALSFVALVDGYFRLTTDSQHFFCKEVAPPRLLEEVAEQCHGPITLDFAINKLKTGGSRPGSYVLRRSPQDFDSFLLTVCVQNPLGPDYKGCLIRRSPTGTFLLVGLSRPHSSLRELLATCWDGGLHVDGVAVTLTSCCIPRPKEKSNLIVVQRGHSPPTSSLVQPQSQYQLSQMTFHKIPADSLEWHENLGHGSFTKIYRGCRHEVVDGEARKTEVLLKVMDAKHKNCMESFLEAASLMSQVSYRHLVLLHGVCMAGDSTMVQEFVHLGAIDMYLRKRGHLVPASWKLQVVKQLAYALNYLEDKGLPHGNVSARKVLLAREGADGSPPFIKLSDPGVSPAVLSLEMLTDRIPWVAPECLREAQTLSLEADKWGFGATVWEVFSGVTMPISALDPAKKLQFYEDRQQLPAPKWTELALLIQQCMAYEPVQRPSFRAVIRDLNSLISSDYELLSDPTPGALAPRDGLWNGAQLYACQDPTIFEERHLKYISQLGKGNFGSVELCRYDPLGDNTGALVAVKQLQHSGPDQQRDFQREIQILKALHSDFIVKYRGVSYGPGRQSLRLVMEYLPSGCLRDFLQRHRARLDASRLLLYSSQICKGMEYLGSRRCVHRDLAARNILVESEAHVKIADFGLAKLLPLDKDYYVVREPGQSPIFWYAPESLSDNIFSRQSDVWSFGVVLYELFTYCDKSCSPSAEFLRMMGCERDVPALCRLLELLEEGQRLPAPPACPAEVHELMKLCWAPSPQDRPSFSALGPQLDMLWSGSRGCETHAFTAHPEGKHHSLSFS
Description: Such covalent binding to JAK3 could be beneficial by providing an extended target engagement which may translate in better efficacy.

IL-2 induced pSTAT5 = experiment: Murine model of IL-2 induced pSTAT5 induction in the thymus; assay type: in vivo
[1] = Phase 1 MAD (Part B) plasma pharmacokinetics in healthy subjects; assay type: in vivo, human; conditions: for half-life: read-out: t1/2, mean (SD) (converted); for AUC: part B (MAD), 100 to 1000 mg BID
Method: The plasma PK parameters of the compound of formula (I) calculated following single (Part A) or multiple (Parts B) oral doses.
In each cohort, healthy subjects meeting eligibility criteria were sequentially randomized in a 3:1 ratio to receive either the compound of formula (I) or placebo BID, each morning and evening (approximately 12 hours following the morning dose) for 10 consecutive days of dosing, except for Day 10 where subjects were only received a morning dose. Subjects were dosed in an upright (i.e., seated or standing) position and remained upright for 5 minutes after dosing before a posture change for other study procedures, if applicable. Subjects fasted overnight for at least 9.5 hours prior to morning dose on Day 1 and Day 10. Subjects continued the fast for at least 4 hours post morning dose on these days. For all other morning doses and for all evening doses (i.e., Day 1 evening and Days 2 to 9), subjects were required to fast for at least 2 hours prior and for at least 2 hours following the dose.
PK sampling for the compound of formula (I) in plasma was taken Day 1 pre-morning dose and for 12 hours post-dose and Day 10 pre-morning dose and for 72 hours post Day 10 dose. Additional pre morning dose samples were taken on Days 2, 4, 6, and 8.
For all subjects, blood samples for the determination of plasma concentration of the compound of formula (I) were collected at scheduled time points. Blood samples were analyzed to calculate different plasma PK parameters in both part A and part B.
For all PK data analyses, the PK analysis set was used. Individual subject and mean plasma drug concentration versus time curves for the compound of formula (I) were presented for each dose group. Summary statistics (mean, standard deviation, coefficient of variation, median, minimum, maximum, geometric mean, geometric coefficient of variation, number of subjects) were calculated for plasma concentrations at each time point for each dose group, and the PK parameters for each dose group. Urine PK parameters were summarized for exploratory purposes.

Caco-2 permeation assay = assay type: in vitro ADME; conditions: human, read-out: Kp (permeability)
splenic NK cell counts = experiment: Immunosuppression model in mice (splenic NK cell counts); assay type: in vivo; conditions: same or higher doses than required for efficacy in the oxazolone model
Description: Oxazolone-induced colitis is an experimental model that has a histological resemblance to human ulcerative colitis.

[2] = Colon and plasma mouse pharmacokinetics; assay type: in vivo
[3] = plasma, Day 1, 100 mg BID, n = 6
[4] = plasma, Day 1, 300 mg BID, n = 6
[5] = plasma, Day 1, 1000 mg BID, n = 6
[6] = plasma, Day 10, 100 mg BID, n = 6
[7] = plasma, Day 10, 300 mg BID, n = 6

- binding nature to JAK3 (co-crystal structure, covalent bond with Cys909) (JAK3): irreversible binding
- time to steady state ([1]; 100 mg BID): 7 days
- Accumulation ratio (AUC0-12,ss/AUC0-12), Geometric mean (CV %) ([1]; 100 mg BID, n = 6): 2.5 (35.2)
- Accumulation ratio (AUC0-12,ss/AUC0-12), Mean (SD) ([1]; 100 mg BID, n = 6): 2.6 (0.78)
- time to steady state ([1]; 300 mg BID): 3 days
- Accumulation ratio (AUC0-12,ss/AUC0-12), Geometric mean (CV %) ([1]; 300 mg BID, n = 6): 2.3 (51.9)
- Accumulation ratio (AUC0-12,ss/AUC0-12), Mean (SD) ([1]; 300 mg BID, n = 6): 2.5 (1.1)
- fold mean Cmax,ss below the protein-adjusted JAK3 IC50 ([1]; 1000 mg BID): approximately 11 fold
- time to steady state ([1]; 1000 mg BID): 3 days
- Accumulation ratio (AUC0-12,ss/AUC0-12), Geometric mean (CV %) ([1]; 1000 mg BID, n = 6): 2.3 (92.5)
- Accumulation ratio (AUC0-12,ss/AUC0-12), Mean (SD) ([1]; 1000 mg BID, n = 6): 2.9 (1.7)
- dose proportionality of exposure (AUC and Cmax) ([1]; after multiple-dose administration): dose proportionally
- Tmax ([1]; both sexes, human, oral, plasma, Day 10 (morning dose), 100 mg BID, n = 6, read-out: Tmax,ss, median (min, max)): 2 h
- half-life ([1]; both sexes, human, oral, plasma, Day 10 (morning dose), 100 mg BID, n = 6): 19.8 h
- Tmax ([1]; both sexes, human, oral, plasma, Day 10 (morning dose), 300 mg BID, n = 6, read-out: Tmax,ss, median (min, max)): 1 h
- half-life ([1]; both sexes, human, oral, plasma, Day 10 (morning dose), 300 mg BID, n = 6): 19.2 h
- Tmax ([1]; both sexes, human, oral, plasma, Day 10 (morning dose), 1000 mg BID, n = 6, read-out: Tmax,ss, median (min, max)): 1 h
- half-life ([1]; both sexes, human, oral, plasma, Day 10 (morning dose), 1000 mg BID, n = 6): 18.5 h
- AUC(0-t) ([1]; both sexes, human, plasma, oral, 100 mg, plasma, Day 1 (morning dose), 100 mg BID, n = 6, read-out: AUC0-12, mean (SD)): 3.5 ng·h/mL
- AUC(0-t) ([1]; both sexes, human, plasma, oral, 100 mg, plasma, Day 10 (morning dose), 100 mg BID, n = 6, read-out: AUC0-12,ss, mean (SD)): 8.9 ng·h/mL
- Cmax ([1]; both sexes, human, plasma, oral, 100 mg, plasma, Day 10 (morning dose), 100 mg BID, n = 6, read-out: Cmax,ss, mean (SD)): 1.7 ng/mL
- AUC(0-t) ([1]; both sexes, human, plasma, oral, 300 mg, plasma, Day 1 (morning dose), 300 mg BID, n = 6, read-out: AUC0-12, mean (SD)): 8.5 ng·h/mL
- AUC(0-t) ([1]; both sexes, human, plasma, oral, 300 mg, plasma, Day 10 (morning dose), 300 mg BID, n = 6, read-out: AUC0-12,ss, mean (SD)): 16.9 ng·h/mL
- Cmax ([1]; both sexes, human, plasma, oral, 300 mg, plasma, Day 10 (morning dose), 300 mg BID, n = 6, read-out: Cmax,ss, mean (SD)): 3.5 ng/mL
- AUC(0-t) ([1]; both sexes, human, plasma, oral, 1000 mg, plasma, Day 1 (morning dose), 1000 mg BID, n = 6, read-out: AUC0-12, mean (SD)): 37.4 ng·h/mL
- AUC(0-t) ([1]; both sexes, human, plasma, oral, 1000 mg, plasma, Day 10 (morning dose), 1000 mg BID, n = 6, read-out: AUC0-12,ss, mean (SD)): 62.1 ng·h/mL
- Cmax ([1]; both sexes, human, plasma, oral, 1000 mg, plasma, Day 10 (morning dose), 1000 mg BID, n = 6, read-out: Cmax,ss, mean (SD)): 13.3 ng/mL
- Tmax ([1]; human, oral, plasma, Day 1 (morning dose), 100 mg BID, n = 6, read-out: Tmax, median (min, max)): 1.5 h
- Tmax ([1]; human, oral, plasma, Day 1 (morning dose), 300 mg BID, n = 6, read-out: Tmax, median (min, max)): 1 h
- Tmax ([1]; human, oral, plasma, Day 1 (morning dose), 1000 mg BID, n = 6, read-out: Tmax, median (min, max)): 1.5 h
- Cmax ([1]; human, plasma, oral, 100 mg, plasma, Day 1 (morning dose), 100 mg BID, n = 6, read-out: Cmax, mean (SD)): 0.78 ng/mL
- Cmax ([1]; human, plasma, oral, 300 mg, plasma, Day 1 (morning dose), 300 mg BID, n = 6, read-out: Cmax, mean (SD)): 2.6 ng/mL
- Cmax ([1]; human, plasma, oral, 1000 mg, highest tested dose (1000 mg BID), read-out: mean Cmax,ss (maximum observed concentration at steady-state)): 13 ng/mL
- Cmax ([1]; human, plasma, oral, 1000 mg, plasma, Day 1 (morning dose), 1000 mg BID, n = 6, read-out: Cmax, mean (SD)): 10.7 ng/mL
- AUC ([1]; human, plasma, oral, read-out: AUCss0-12 in the plasma of the subjects (range)): 5.43 to 88.5 ng·h/mL
- AUC ([1]; human, plasma, oral, read-out: average AUCss0-12): 8.94 to 62.1 ng·h/mL
- concentration at 10 days ([1]; human, plasma, oral, multiple doses up to 1000 mg BID, read-out: Plasma concentrations): < 35 ng/mL
- Dose normalized AUC0-12/D, mean (SD) [1, 3]: 0.035 (0.012) ng*hr/mL/mg
- Dose normalized Cmax/D, mean (SD) [1, 3]: 0.0078 (0.0033) ng/mL/mg
- Dose normalized AUC0-12/D, mean (SD) [1, 4]: 0.028 (0.016) ng*hr/mL/mg
- Dose normalized Cmax/D, mean (SD) [1, 4]: 0.0086 (0.0079) ng/mL/mg
- Dose normalized AUC0-12/D, mean (SD) [1, 5]: 0.037 (0.039) ng*hr/mL/mg
- Dose normalized Cmax/D, mean (SD) [1, 5]: 0.011 (0.013) ng/mL/mg
- Dose normalized AUC0-12,ss/D, mean (SD) [1, 6]: 0.089 (0.036) ng*hr/mL/mg
- Dose normalized Cmax,ss/D, mean (SD) [1, 6]: 0.017 (0.0080) ng/mL/mg
- Dose normalized AUC0-12,ss/D, mean (SD) [1, 7]: 0.056 (0.012) ng*hr/mL/mg
- Dose normalized Cmax,ss/D, mean (SD) [1, 7]: 0.012 (0.0045) ng/mL/mg
- Dose normalized Cmax,ss/D, mean (SD) ([1]; plasma, Day 10, 1000 mg BID, n = 6): 0.013 (0.0084) ng/mL/mg
- Papp (Caco-2 permeation assay): < 5 ×10⁻⁶ cm/s
- splenic NK cell counts (splenic NK cell counts): unaffected
- Kp ([2]; colon/plasma, mouse, oral administration, read-out: ratio of exposure in the colon to exposure in plasma): > 1250
- permeability coefficient (Papp) ([2]; stated in the sentence on the colon and plasma mouse pharmacokinetics study): less than 10×10^−6 cm/sec
Compound: CN(C)C/C=C/C(=O)N1CC(COc2cc(-c3ccc(O)cc3)cc3[nH]ncc23)C1 [compound of formula (I)]
- systemic activity (IL-2 induced pSTAT5 induction in the thymus) (IL-2 induced pSTAT5): lack of systemic activity

Source: patent US11471442B2, “Administration of gut-selective JAK3 inhibitor” (THERAVANCE BIOPHARMA R&D IP, LLC, priority 2020, dated 2022)
